{
  "source": "patent US20230150920A1",
  "about": "“SALTS AND SOLID FORMS OF 4-BROMO-2,5-DIMETHOXYPHENETHYLAMINE” (priority 2021, published 2023)",
  "key": {"[1]": {"experiment": "Solubility estimate by adding solvent aliquots to weighed solid, dissolution judged visually", "details": "thermodynamic from solid"}, "[2]": {"experiment": "Dynamic vapor sorption/desorption (DVS), hygroscopicity", "type": "physicochemical", "experimental": "The active pharmaceutical ingredient (API), 4-bromo-2,5-dimethoxyphenethylamine hydrochloride, is characterized to evaluate its physical properties. The evaluation is performed by X-ray powder diffraction (XRPD), polarized light microscopy (PLM), differential scanning calorimetry (DSC), thermogravimetry (TG), dynamic vapor sorption/desorption (DVS), and/or solubility testing in organic solvents, water, and mixed solvent systems. XRPD data are used to assess crystallinity. PLM data are used to evaluate crystallinity and particle size/morphology. DSC data are used to evaluate melting point, thermal stability, and crystalline form conversion. TG data are used to evaluate if the API is a solvate or hydrate, and to evaluate thermal stability. DVS data are used to evaluate hygroscopicity of the API and if hydrates can be formed at high relative humidity.\nThe form characterized in FIGS. 1 and 2 is designated as Form A herein. […] A sharp endotherm at 238° C. in the DSC thermogram is attributed to melting."}, "[3]": {"experiment": "Dynamic vapor sorption (DVS) with XRPD of the post-DVS sample", "type": "physicochemical", "experimental": "Dynamic Vapor Sorption (DVS) analysis was carried out using a TA Instruments Q5000 Dynamic Vapor Sorption analyzer. The instrument was calibrated with standard weights and a sodium bromide standard for humidity. Approximately 10-25 mg of sample was loaded into a metal-coated quartz pan for analysis. The sample was analyzed at 25° C. with a maximum equilibration time of one hour in 10% relative humidity (RH) steps from 5 to 95% RH (adsorption cycle) and from 95 to 5% RH (desorption cycle). The movement from one step to the next occurred either after satisfying the equilibrium criterion of 0.01% weight change or, if the equilibrium criterion was not met, after one hour. The percent weight change values were calculated using Microsoft Excel.\n(§1) The DVS analysis was carried out using a TA Instruments Q5000 Dynamic Vapor Sorption analyzer. 13.5 mg of sample was loaded into a metal-coated quartz pan for analysis. After equilibration to 5% relative humidity (RH), the sample was analyzed at 25° C. in 10% RH steps from 5 to 95% RH (adsorption cycle) and from 95 to 5% RH (desorption cycle). The movement from one step to the next occurred either after satisfying the equilibrium criterion of 0.01% weight change in 5 minutes or, if the equilibrium criterion was not met, after 90 minutes. The percent weight change values are calculated using Microsoft Excel®.\nas §1, with “DVS analyses were” for “DVS analysis was”, “analyzer. Approximately 7-11” for “analyzer. 13.5”, “equilibration at” for “equilibration to”, “values were” for “values are”\nas §1, with “analyzer. Approximately 2” for “analyzer. 13.5”, “equilibration at” for “equilibration to”, “values were” for “values are”"}, "[4]": {"experiment": "Deliquescence at 75% RH at ambient temperature", "type": "physicochemical"}, "[5]": {"experimental": "Solubilities in water were estimated for the majority of the salts identified during screening. The experiments were carried out by adding water in aliquots to weighed portions of solid. […] Values are reported as “≥” if complete dissolution was observed upon the first aliquot."}, "[6]": {"experiment": "Estimated solubilities of 2C-B HCl in solvents", "details": "thermodynamic from solid"}, "[7]": {"details": "MeOH/CHCl3 50/50, organic solvent or mixture"}, "[8]": {"details": "acetone, organic solvent or mixture"}, "[9]": {"details": "acetone/H2O 80/20, organic solvent or mixture"}},
  "note": "Structures can show the parent of a compound that is named as a salt.",
  "data": [
    {"compound": "COc1cc(CCN)c(OC)cc1Br", "note": "[2C-B.HCl, 4-bromo-2,5-dimethoxyphenethylamine hydrochloride]", "values": [
      {"measurement": "solubility", "setting": "[1]; [7]", "value": 41, "unit": "mg/mL"},
      {"measurement": "solubility", "setting": "[1]; [8]", "value": "< 2", "unit": "mg/mL"},
      {"measurement": "solubility", "setting": "[1]; [9]", "value": "> 79", "unit": "mg/mL"},
      {"measurement": "solubility", "setting": "[1]; acetonitrile, organic solvent or mixture", "value": "< 1", "unit": "mg/mL"},
      {"measurement": "solubility", "setting": "[1]; ethanol, organic solvent or mixture", "value": 13, "unit": "mg/mL"},
      {"measurement": "solubility", "setting": "[1]; ethyl acetate, organic solvent or mixture", "value": "< 2", "unit": "mg/mL"},
      {"measurement": "solubility", "setting": "[1]; isopropanol, organic solvent or mixture", "value": "< 2", "unit": "mg/mL"},
      {"measurement": "solubility", "setting": "[1]; methanol, organic solvent or mixture", "value": 41, "unit": "mg/mL"},
      {"measurement": "solubility", "setting": "[1]; tetrahydrofuran, organic solvent or mixture", "value": "< 2", "unit": "mg/mL"},
      {"measurement": "solubility", "setting": "[1]; water", "value": 34, "unit": "mg/mL"}
    ]},
    {"compound": "2C-B malate", "values": [
      {"measurement": "Water uptake (5-85% RH) %", "setting": "[2]; 5-85% RH part of sorption", "value": 0.6, "unit": "%"},
      {"measurement": "Water uptake (85-95% RH) %", "setting": "[2]; 85-95% RH part of sorption", "value": "(5-85); 1 (85-95) %"},
      {"measurement": "Hygroscopicity: weight gain", "setting": "[2]; <85% RH", "value": "RH: 0.6%"},
      {"measurement": "Hygroscopicity: weight gain", "setting": "[2]; >85% RH", "value": "RH: 1.0% gain"},
      {"measurement": "Hygroscopicity", "setting": "[2]; grade in words, from DVS", "value": "Slightly"},
      {"measurement": "Water uptake (5-95% RH) %", "setting": "[2]; total, 5-95% RH", "value": 1.6, "unit": "%"},
      {"measurement": "hygroscopicity based on DVS data", "setting": "[3]; 25° C., 5 to 95% RH", "value": "slightly hygroscopic"},
      {"measurement": "moisture gain by DVS", "setting": "[3]; 25° C., adsorption 5 to 95% RH", "value": 1.6, "unit": "%"},
      {"measurement": "moisture gain by DVS, equivalent moles of water", "setting": "[3]; 25° C., adsorption 5 to 95% RH", "value": "approximately 0.4 moles"},
      {"measurement": "post-DVS XRPD result", "setting": "[3]; XRPD of the post-DVS sample", "value": "Consistent with Malate"},
      {"measurement": "DVS desorption weight loss, 85-5% RH", "setting": "[3]; desorption 85-5% RH", "value": "85-5% RH: 0.6% loss"},
      {"measurement": "DVS desorption weight loss, 95-85% RH", "setting": "[3]; desorption 95-85% RH", "value": "95-85% RH: 1.0% loss"},
      {"measurement": "behaviour on desorption / form change by XRPD of post-DVS sample", "setting": "[3]; desorption 95 to 5% RH", "value": "all the gained moisture is lost without form change"},
      {"measurement": "DVS desorption total loss", "setting": "[3]; desorption, total", "value": "Total loss: 1.6%"},
      {"measurement": "DVS sorption weight gain, 5-85% RH", "setting": "[3]; sorption 5-85% RH", "value": "5-85% RH: 0.6% gain"},
      {"measurement": "DVS sorption weight gain, 85-95% RH", "setting": "[3]; sorption 85-95% RH", "value": "85-95% RH: 1.0% gain"},
      {"measurement": "DVS sorption total gain", "setting": "[3]; sorption, total", "value": "Total gain: 1.6%"},
      {"measurement": "deliquescence", "setting": "[4]; at 75% RH", "value": "Did not deliquesce"},
      {"measurement": "deliquescence", "setting": "[4]; several days at 75% RH at ambient temperature", "value": "not observed"},
      {"measurement": "Kinetic water solubility", "setting": "[5]", "value": 6, "unit": "mg/mL"},
      {"measurement": "estimated kinetic solubility in water", "setting": "[5]; room temperature, visually determined", "value": 6, "unit": "mg/mL"},
      {"measurement": "aqueous solubility (kinetic)", "setting": "[5]; water, kinetic estimate", "value": 6, "unit": "mg/mL aqueous"},
      {"measurement": "Estimated kinetic aqueous solubility", "setting": "[5]; water, room temperature, * = a few particulates/flakes remaining (see comments)", "value": 6, "unit": "mg/mL"}
    ]},
    {"compound": "COc1cc(CCN)c(OC)cc1Br.Cl", "note": "[2C-B HCl, 4-bromo-2,5-dimethoxyphenethylamine HCl]", "values": [
      {"measurement": "DVS Sorption: weight gain", "setting": "[2]; 5-95% RH", "value": "5-95% RH: 0.9% gain"},
      {"measurement": "DVS Desorption: weight loss", "setting": "[2]; 95-5% RH", "value": "95-5% RH: 1.0% loss"},
      {"measurement": "solubility", "setting": "[6]; ACN, organic solvent or mixture", "value": "< 1", "unit": "mg/mL"},
      {"measurement": "solubility", "setting": "[6]; EtOAc, organic solvent or mixture", "value": "< 2", "unit": "mg/mL"},
      {"measurement": "solubility", "setting": "[6]; EtOH, organic solvent or mixture", "value": 13, "unit": "mg/mL"},
      {"measurement": "solubility", "setting": "[6]; H2O, water", "value": 34, "unit": "mg/mL"},
      {"measurement": "solubility", "setting": "[6]; IPA, organic solvent or mixture", "value": "< 2", "unit": "mg/mL"},
      {"measurement": "solubility", "setting": "[6]; MeOH, organic solvent or mixture", "value": 41, "unit": "mg/mL"},
      {"measurement": "solubility", "setting": "[6]; [7]", "value": 41, "unit": "mg/mL"},
      {"measurement": "solubility", "setting": "[6]; THF, organic solvent or mixture", "value": "< 2", "unit": "mg/mL"},
      {"measurement": "solubility", "setting": "[6]; [8]", "value": "< 2", "unit": "mg/mL"},
      {"measurement": "solubility", "setting": "[6]; [9]", "value": "≥ 79", "unit": "mg/mL"},
      {"measurement": "post-DVS XRPD", "setting": "[3]; solid form after DVS cycle", "value": "Form A"}
    ]}
  ]
}
